The record followed here is a melting point compilation (Tetko et al.; mined from patent text by program, amines drawn as free bases though some values may be those of a salt).

Where only a bound is given, the exact number is not on record here.

For `Cc1noc(NS(=O)(=O)c2ccc(-c3ccc4c(c3)OCO4)cc2)c1Br`, the melting point was 172 to 174 °C.
On to `CCOCCn1c(N2CCCN(CCC3(c4ccc(OC)c(OC)c4)CCN(C(=O)c4cc(OC)c(OC)c(OC)c4)C3)CC2)nc2ccccc21` (stereo unspecified), for which the melting point was 90 to 100 °C.
Regarding `CNC(=O)c1ccc2[nH]ccc2c1`, the melting point lay in the range of 140 to 141 °C.
The result for `CSC1=Nc2cc(Cl)ccc2N(C)c2cscc21` reads 156 to 158 °C.
As for `Cc1ccc(S(=O)(=O)Nc2cccc3c2Nc2ccc(O)cc2CO3)s1`, the melting point is 184 to 188 °C.
`CC(C)(C)OC(=O)N1CCN(C(=O)c2ccncc2)CC1`: the melting point is 139 to 140 °C.
In the case of `O=c1cc(N2CCOCC2)[nH]c2c(-c3ccc([N+](=O)[O-])c4c3oc3ccccc34)cccc12`, the melting point is 247 °C.
Turning to `CCOC(=O)c1cc2c3n(ccc-2n1)CC(c1ccccc1)=N3`, the melting point was 255 to 257 °C.
Consider `NC(=O)C(F)(F)C(O)(Cn1cncn1)c1ccccc1` (stereo unspecified), for which the melting point fell in the range of 160 to 161 °C.
`OCCNc1cc(Nc2ccc(Nc3ccccc3)cc2)ncn1` returned a melting point of 154 to 155 °C.
`CC(C)NC1=Nc2ccc(Cl)cc2S(=O)(=O)N1C` came in with a melting point of 139 to 141 °C.
The value for `CCCC(O)(CCC)c1ccc(Cl)c2nc3n(c12)CCCN3c1ccc(Cl)cc1C(F)(F)F` was 200 to 202 °C; that for `N#CCCOC(=O)C=Cc1ccccc1` was 62 to 65 °C; that for `Cc1nc(-c2cccc(Cl)c2)c2cc(C(O)(c3ccc(Cl)cc3)c3cncn3C)ccc2n1` (stereo unspecified) was 223 °C.
`COc1ccc(OC)c2c(Nc3ccc(Cl)cc3F)c(C#N)cnc12` registered a melting point of 197 to 199 °C.
Regarding `CCCCCCCOc1ccc(-c2ncc(C#N)c(Cl)n2)cc1`, the melting point lay in the range of 133 to 135 °C.
The molecule `CC1(C)Cc2c(Cl)c(N)cc(C(=O)O)c2O1` showed a melting point of 185 to 187 °C.
For the molecule `OC1CSC(Oc2ccc(-c3ccc(C(F)(F)F)cc3)nc2)C(O)C1O` (stereo unspecified), the melting point was 194 to 195 °C.
The molecule `Cc1cc(S)c(C)c(C)c1O` had a melting point of 86 °C.
The molecule `CCN(CC)CC1CCCCN1CC(=O)N1c2ccc(C)cc2C(=O)Nc2cccnc21` (stereo unspecified) returned a melting point of 173 to 174 °C.
The value for `CCC(O)c1cc2ccccc2cc1CO` (stereo unspecified) was 70 °C; that for `COc1ccc2nc(COc3cccc(C(=O)Nc4cc(CCCS(=O)(=O)c5ccc(Cl)cc5)ccc4OCC(=O)O)c3)sc2c1` was 187 to 189 °C; that for `O=C(O)CCc1ccc(CCNS(=O)(=O)c2ccccc2)cc1` was 102 to 103 °C.
`c1ccc(C(C2=NCCN2)c2ccccn2)cc1` (stereo unspecified): the melting point lay within 134 to 136 °C.
In turn, `CC(C)(COC(=O)c1ccccc1)c1cc(OS(C)(=O)=O)ccc1OC(=O)c1ccccc1` displayed a melting point of 100 to 101 °C.
Molecule `O=C(CCl)NNC1=Nc2ccc(Cl)cc2N(c2ccccc2)C(=O)C1` showed a melting point of 210 to 215 °C.
Turning to `CC1(C)Oc2ccc(Cl)cc2[C@@H](N2CCCC2=O)[C@@H]1O` (relative stereo), the melting point was in the range of 202 to 203 °C.
`O=C(O)c1ccc(CNC(=O)C2Cc3ccccc3N2S(=O)(=O)c2ccc(-c3ccc(F)cc3F)cc2)cc1` (stereo unspecified): the melting point is 115 °C.
As for `O=C(Nc1ccc(F)c(F)c1)C12CC3CC(CC(C3)C1)C2`, the melting point lay in the range of 168 to 170 °C.
For the molecule `Nc1c(-c2ccc(Cl)cc2)nc2ccccc2c1C(=O)O`, the melting point fell in the range of 243 to 244 °C.
Consider `Cc1ccc2[nH]c(=O)n(C(C)(C)C(=O)OCC(=O)c3ccccc3)c(=O)c2c1`, for which the melting point is 189 to 191 °C.
In turn, `Nc1cccc(Cn2c(-c3ccccc3)ccc2-c2ccccc2)n1` returned a melting point of 143 to 144 °C.
`O=C(OC(c1ccccc1)c1ccccc1)c1c(-c2ccccc2)oc2c(CCl)cccc2c1=O`: the melting point stood at 186 °C.
For the molecule `O=S1(=O)c2cccc3cccc(c23)N1CCN1CCC(Cc2cc3cc(F)ccc3[nH]2)CC1`, the melting point came out at 154 °C.
On to `COc1ccc(C(=O)c2ccc(F)cc2)c(F)c1`, for which the melting point was 89.7 to 90.1 °C.
The molecule `Nc1ccc(S(=O)(=O)Nc2cc(N)nc(S)n2)cc1` came in with a melting point of 232 to 234 °C.
The molecule `COC(=O)[C@@H]1C[C@H](C(=O)OC(C)(C)C)N(C(=O)CNC(=O)OC(C)(C)C)[C@@H]1c1ccccc1F` (racemic) registered a melting point of 142 °C.
The molecule `COc1cccc(NC(=O)NCc2cccc3c2C(=O)N(C2CCC(=O)NC2=O)C3=O)c1` (stereo unspecified) yielded a melting point of 160 to 162 °C.
`CCOP(=O)(Cc1ccc(C(=O)Nc2ccc(Br)cc2C#N)cc1)OCC` registered a melting point of 165 to 166 °C.
Turning to `COc1ccc2c(c1)C1=C(SCC3(CCN(C(=O)c4cccc(Cl)c4)CC3)O1)C(=O)C2=O`, the melting point is 125 to 127 °C.
`O=S(=O)(Nc1cccc(CCOCc2csc(-c3ccc(C(F)(F)F)cc3)n2)c1)C(F)(F)F` registered a melting point of 117 to 119 °C.
For `CC(=O)OCCOc1ccc2oc3cc(C#N)ccc3c(=O)c2c1`, the melting point was 194 to 196 °C.
`Cn1c(=O)n(CCCN2CCC3(CC2)C(=O)NCN3c2ccccc2)c2ccccc21` displayed a melting point of 164 °C.
For `CC(C)(Oc1ccc(C(=O)NCc2ccc(Cl)cc2)cc1)C(=O)O`, the melting point came out at 180 °C.
`Cc1oc(-c2ccccc2)nc1COc1ccccc1COc1ccccc1CC(=O)O` displayed a melting point of 145 to 146 °C.
Take `COc1cc(OC2CCN(S(=O)(=O)CCNC3CC3)CC2)ccc1CC(=O)N1CCN(c2ccccc2C)CC1C(N)=O` (stereo unspecified): the melting point fell in the range of 69 to 110 °C.
As for `COc1cc(Nc2ncc(-c3ccccc3)o2)ccc1-c1cnco1`, the melting point lay within 212 to 215 °C.
The value for `CC(=O)OCC1=C(C(=O)OC(c2ccccc2)c2ccccc2)N2C(=O)C(NC(=O)Cc3csc(-c4c(O)cccc4O)n3)C2SC1` (stereo unspecified) was 144 to 146 °C.
`CCOC(=O)C1=NN(c2cccc(Cl)c2)C(c2ccccc2)CO1` (stereo unspecified) had a melting point of 103 to 104 °C.
The value for `Fc1ccccc1-c1nc2cccnc2o1` was 119 to 120 °C; that for `C#CC1(O)CCc2c(OC)ccc(OC)c2C1` (stereo unspecified) was 103 to 105 °C; that for `Cc1oc(-c2ccco2)nc1COc1ccc(Cn2cc(CC(=O)O)c(-c3ccccc3)n2)cn1` was 135 to 136 °C.
In turn, `COc1ccc(C2(C)C(=O)c3c(Cl)cc(Cl)cc3N(Cc3ccccc3)C2=O)cc1` (stereo unspecified) displayed a melting point of 159 to 160 °C.
The value for `NS(=O)(=O)c1nnc(NC(=O)c2ccccc2O)s1` was over 250 °C; that for `Cc1ccc(-c2[nH]c(C)nc2C(=O)Nc2nccs2)cc1` was 275 to 276 °C; that for `O=C(O)c1c2c(nc3ccc(F)cc13)-c1ccc(-c3cccc(F)c3)cc1CCC2` was over 300 °C.
For the molecule `NC(=O)N1c2ccccc2C=C([N+](=O)[O-])c2ccccc21`, the melting point is 208 to 212 °C.
Regarding `O=S(=O)(c1ccccc1)n1cc(I)c2c(OC3CCCCC3)ccnc21`, the melting point lay within 112 to 114 °C.
For `Cc1ccc(-n2cnc3nncc-3c2N)cc1`, the melting point was over 300 °C.
As to `O=C1Nc2ncc(Br)cc2C1(Br)Br`, the melting point lay within 157 to 158 °C.
Molecule `FC(F)(F)CNC(=S)Nc1cncc(Cl)n1` displayed a melting point of 170 to 172 °C.
The result for `O=c1cc(N2CCOCC2)cc(-c2ccc(Cl)cc2)o1` reads 236 to 237 °C; that for `Cc1oc2cc(C3CC(=O)NC(=O)C3)ccc2c1C`, 252 to 254 °C; that for `Cc1nc(-c2ccc(CN3C(=O)C4(COc5cc6c(cc54)OCCO6)c4ccccc43)cc2)no1` (stereo unspecified), 174 to 175 °C.
The result for `CCCCCC(C)N(Cc1ccnc2ccccc12)C(Nc1ccc(OC)cc1OC)=C1C(=O)OC(C)(C)OC1=O` (stereo unspecified) reads 197 to 202 °C; that for `COC(=O)c1ccc(OC(=C(Oc2ccc(C(=O)OC)cc2)C(F)(F)F)C(F)(F)F)cc1`, 123 °C; that for `Clc1ccc(Cl)c(Oc2cccc(Cl)n2)c1`, 82 to 84 °C.
Consider `CC(C)(C)OC(=O)NCC1(Cc2noc(=S)[nH]2)CCCCC1`, for which the melting point was 160 to 161 °C.
Molecule `CCCN(C1CCN(C)CC1)S(=O)(=O)c1ccc(Nc2nccc(Nc3ccc(F)cc3)n2)cc1` returned a melting point of 232 °C.
`O=C(N[C@@H](Cc1ccc(OCCc2coc(-c3ccccc3)n2)cc1)C(=O)O)c1ccc(Cl)cc1` returned a melting point of 158 to 161 °C.
Take `Cc1cc(-c2cc(C(F)(F)F)n3nc(CC#N)c(C#N)c3n2)ccc1Cl`: the melting point came out at 238 °C.
The result for `COc1ccc(-c2cc(N(C)c3c(C)cc(C)cc3C)nc(C)n2)cc1OC` reads 124 to 125 °C; that for `COc1cc(C(=O)c2ncc3ccc(NC(=O)OC(C)(C)C)cn23)ccc1[N+](=O)[O-]`, 200 °C; that for `CS(=O)(=O)NCCc1ccc2c(c1)C(=O)c1ccccc1CO2`, 104 to 106 °C.
The result for `Cn1nc(O[C@@H]2c3cc(C#N)ccc3OC(CF)(CF)[C@H]2O)ccc1=O` (relative stereo) reads 215 to 217 °C.
In the case of `CC(C)OC(=O)c1cc(N=C=O)c(F)cc1Cl`, the melting point is 41 to 43 °C.
In the case of `O=C(O)c1ccc(Cl)cc1NCc1cccnc1`, the melting point is 235 to 236 °C.
`COc1ccc(OC)c2c1CCC(O)(CCO)C2` (stereo unspecified): the melting point fell in the range of 121 to 122 °C.
The result for `Brc1ccc(C=Cc2cc3ccccc3s2)s1` reads 171 to 172 °C; that for `CC(=O)Oc1c(C)ccc2ccccc12`, 81 to 83 °C; that for `CC(C)n1nc(-c2cc(NC(=O)c3ccccc3)cnc2-c2ccccc2)ccc1=O`, 207 to 208 °C.
In turn, `COc1cc2c(cc1F)OCC21C(=O)N(Cc2ccc(C(F)(F)F)o2)c2ccccc21` (stereo unspecified) displayed a melting point of 132 to 134 °C.
The molecule `COc1cc2c(cc1O)CCC1C2CCC2(C)C(=O)CCC12` (stereo unspecified) had a melting point of 167 to 170 °C.
Molecule `Cc1oc(-c2ccco2)nc1COc1ccc(COc2nn(Cc3ccccc3)cc2C=O)cc1` had a melting point of 118 to 119 °C.
The result for `CC1(C)CN(Cc2cc(F)ccc2F)c2cc(-c3ccc(C(=O)N4CCC[C@H]4CN4CCCC4)cc3)cnc2N1` reads 74 to 77 °C; that for `C=CCc1c(OC(C)=O)ccc2c(C)cc(=O)oc12`, 98.8 to 99.8 °C.

A word on the melting point: it is the temperature of the solid-liquid transition.
